Results on 33 compounds are retold here after patent US9296722B2, “Azolyl urea compounds and methods of use thereof” (Ambit Biosciences Corporation, priority 2010, dated 2016).

pIC50, pKd: −log10 of the molar value.

Test [1] concerns the target kinase panel containing either 359 or 386 distinct kinases. The experiment in a line: Competition binding assay, selectivity score (S10) against a panel of kinases. The following applies: compounds at 10 μM; fraction of kinases with percent of control less than 10. How it is done:
Competition binding assays used herein were developed, validated and performed as described in Fabian et al., Nature Biotechnology 2005, 23, 329-336. Kinases were produced as fusions to T7 phage (See, Fabian et al. or WO04/015142) or alternatively, the kinases were expressed in HEK-293 cells and subsequently tagged with DNA for PCR detection (See, WO08/005,310). […] The liganded beads were blocked with excess biotin and washed with blocking buffer (SeaBlock (Pierce), 1% BSA, 0.05% Tween 20, 1 mM DTT) to remove unbound ligand and to reduce non-specific binding. […] Test compounds were prepared as 100× stocks in DMSO and diluted into the aqueous environment. Kds were determined using an eleven point threefold serial dilutions. DMSO or control compounds were was added to control assays lacking a test compound. Primary screen assays were performed in polypropylene 384-well plates in a final volume of 20-40 μL, while Kd determinations were performed in polystyrene 96-well plates in a final volume of […]. […] The kinase concentration in the eluates was measured by quantitative PCR.
A selectivity score (S10) is a quantitative measure of selectivity of a compound against a panel of kinases. An S10 was calculated for a compound by dividing the number of kinases found to have a percent of control (DMSO) less than 10 by the total number of distinct kinases tested (excluding mutant variants). Percent of control (POC) is calculated by subtracting the signal of the control compound
(POC=0) from the signal of the test compound and dividing the outcome by the signal of DMSO (POC=100) minus the signal of the control compound. For the compounds disclosed herein, S10 scores were obtained by testing the compounds at 10 μM concentration in a kinase panel containing either 359 or 386 distinct kinases.

Test [2] addresses T1, CSF1R (human) (Homo sapiens, UniProt P07333).
T1 construct: made in house; host or cells: T7 phage display or HEK-293 cells (alternatives, not resolved per kinase)
In words: Competition binding assay, CSF1R (human) Kd. How it is done:
The liganded beads were blocked with excess biotin and washed with blocking buffer (SeaBlock (Pierce), 1% BSA, 0.05% Tween 20, 1 mM DTT) to remove unbound ligand and to reduce non-specific binding. […] Test compounds were prepared as 100× stocks in DMSO and diluted into the aqueous environment. Kds were determined using an eleven point threefold serial dilutions. DMSO or control compounds were was added to control assays lacking a test compound. […] The kinase concentration in the eluates was measured by quantitative PCR.

Test [3] concerns M-NFS-60 cells. The experiment in a line: M-NFS-60 cell proliferation assay. It is filed as cell-based, mouse. The conditions noted are these: Mus musculus; 72 hours incubation, Alamar Blue, M-CSF-dependent cells; read-out: CSF1R Cell Proliferation (M-NFS-60) IC50. How it is done:
In certain embodiments, the compounds disclosed herein are tested in an M-NFS-60 cell proliferation assay to determine their cellular potency against CSF-1R. M-NFS-60s are mouse monocytic cells that depend on the binding of the ligand M-CSF to its receptor, CSF-1R, to proliferate Inhibition of CSF-1R kinase activity will cause reduced growth and/or cell death. This assay assesses the potency of compounds as CSF-1R inhibitors by measuring the reduction of Alamar Blue reagent by viable cells. An exemplary assay is described in the Examples section.
The compounds disclosed herein were tested in an M-NFS-60 cell proliferation assay to determine their cellular potency against CSF1R. M-NFS-60s are mouse monocytic cells that depend on the binding of the ligand M-CSF to its receptor, CSF1R, to proliferate Inhibition of CSF1R kinase activity will cause reduced growth and/or cell death. This assay assesses the potency of compounds as CSF1R inhibitors by measuring the reduction of Alamar Blue reagent by viable cells.
On day one of the experiment, M-NFS-60 cells were maintained in RPMI complete medium (Omega Scientific) plus 10% FBS supplemented with 20 ng/mL of M-CSF (R&D Systems). 96-well TC-treated, flat bottom plates were seeded at 10,000 cell/well at a volume of 100 μL per well. The cells were cultured overnight at 37° C. under 5% CO2.
On day two, compounds were added to the cells at 9 different concentrations, with half-log intervals alongside a control reference compound serving as a positive control. Final DMSO concentration was kept at 0.5% for a final volume of 200 μL. The compounds were allowed to incubate with the cells for 72 hours at 37° C. under 5% CO2.
On day five of the experiment, 40 μl of Alamar Blue reagent was added to each well and allowed to incubate for 3 hours. Alamar Blue fluorescence was read using SoftMax Pro software at 560 nm (excitation) and 590 nm (emission). IC50s were generated as an average of duplicates and represents the concentration of test compound that achieves 50% inhibition of cellular proliferation compared to control.

T1 sequence (P07333 20-972): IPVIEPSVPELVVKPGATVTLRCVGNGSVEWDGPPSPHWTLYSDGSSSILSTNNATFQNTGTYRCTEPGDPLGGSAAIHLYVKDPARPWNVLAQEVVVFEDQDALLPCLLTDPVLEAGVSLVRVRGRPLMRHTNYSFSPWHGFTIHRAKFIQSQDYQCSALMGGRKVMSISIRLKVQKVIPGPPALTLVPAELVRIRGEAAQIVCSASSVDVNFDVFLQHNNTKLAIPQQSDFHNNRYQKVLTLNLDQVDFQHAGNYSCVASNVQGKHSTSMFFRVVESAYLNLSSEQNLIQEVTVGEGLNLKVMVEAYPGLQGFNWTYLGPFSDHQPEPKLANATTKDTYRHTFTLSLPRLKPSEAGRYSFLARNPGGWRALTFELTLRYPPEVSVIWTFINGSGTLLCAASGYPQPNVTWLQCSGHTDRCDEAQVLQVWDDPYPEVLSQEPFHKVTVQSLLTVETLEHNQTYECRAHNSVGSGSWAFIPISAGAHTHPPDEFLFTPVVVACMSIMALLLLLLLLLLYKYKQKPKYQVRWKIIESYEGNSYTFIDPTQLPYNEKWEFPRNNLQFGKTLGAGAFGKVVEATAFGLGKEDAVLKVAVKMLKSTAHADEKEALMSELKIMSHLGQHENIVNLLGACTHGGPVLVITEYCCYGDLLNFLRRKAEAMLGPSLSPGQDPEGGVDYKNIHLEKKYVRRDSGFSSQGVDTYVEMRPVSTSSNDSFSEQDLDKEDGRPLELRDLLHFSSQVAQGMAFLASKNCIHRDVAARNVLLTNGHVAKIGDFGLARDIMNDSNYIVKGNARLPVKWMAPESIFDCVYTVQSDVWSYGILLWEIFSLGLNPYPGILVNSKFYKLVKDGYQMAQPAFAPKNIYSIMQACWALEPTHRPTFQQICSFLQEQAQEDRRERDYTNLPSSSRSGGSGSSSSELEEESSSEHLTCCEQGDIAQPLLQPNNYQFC

On to `CC(C)(C)c1cc(NC(=O)Nc2ccc(NC(=O)c3cc(OC4CCNCC4)ccn3)cc2)no1`, for which, in test [1], the “Kinase Specificity (S10)” value is recorded as “B (0.03 < B ≦ 0.05)”.
On the same count and under the same terms, with `CCN1CCC(Oc2ccnc(C(=O)Nc3ccc(NC(=O)Nc4cc(C(C)(C)C)on4)cc3)c2)CC1` the entry was “B (0.03 < B ≦ 0.05)”; with `CC(C)(C)c1cc(NC(=O)Nc2ccc(NC(=O)c3ccc(OC4CCNCC4)cn3)cc2)no1`, “C (C > 0.05)”; with `CCN1CCC(Oc2ccc(C(=O)Nc3ccc(NC(=O)Nc4cc(C(C)(C)C)on4)cc3)nc2)CC1`, “C (C > 0.05)”.
Same read-out and setting: with `CCN1CCC(Cc2ccc(C(=O)Nc3ccc(NC(=O)Nc4cc(C(C)(C)C)on4)cc3)nc2)CC1` the entry was “B (0.03 < B ≦ 0.05)”; with `CCN1CCC(c2ccc(C(=O)Nc3ccc(NC(=O)Nc4cc(C(C)(C)C)on4)cc3)nc2)CC1`, “B (0.03 < B ≦ 0.05)”; with `CN1CCN(Cc2ccc(C(=O)Nc3ccc(NC(=O)Nc4cc(C(C)(C)C)on4)cc3)nc2)CC1`, “A (A ≦ 0.03)”.
The same measure, in the same setting: with `CC(C)(C)c1cc(NC(=O)Nc2ccc(NC(=O)c3ccc(OC4CCN(CC(F)(F)F)CC4)cn3)cc2)no1` the entry was “A (A ≦ 0.03)”.
Compound `CCN1CC(Oc2ccc(C(=O)Nc3ccc(NC(=O)Nc4cc(C(C)(C)C)on4)cc3)nc2)C1` gave a pKd in test [2] of over 8.52. Besides, the pIC50 in test [3] was 6.60 to 7.00. Besides, the “Kinase Specificity (S10)” value in test [1] was “B (0.03 < B ≦ 0.05)”.
In the case of `CC(C)N1CCC(Oc2ccc(C(=O)Nc3ccc(NC(=O)Nc4cc(C(C)(C)C)on4)cc3)nc2)CC1`, the “Kinase Specificity (S10)” value in test [1] was “B (0.03 < B ≦ 0.05)”.
The same measure, in the same setting: with `CN1C(C)(C)CC(Oc2ccc(C(=O)Nc3ccc(NC(=O)Nc4cc(C(C)(C)C)on4)cc3)nc2)CC1(C)C` the entry was “C (C > 0.05)”; with `CC(C)(C)c1cc(NC(=O)Nc2ccc(NC(=O)c3ccc(OC4CCN(C5CC5)CC4)cn3)cc2)no1`, “A (A ≦ 0.03)”.
Same read-out and setting: with `CC(C)(C)c1cc(NC(=O)Nc2ccc(NC(=O)c3ccc(OC4CCN(C(C)(C)C)CC4)cn3)cc2)no1` the entry was “B (0.03 < B ≦ 0.05)”.
In turn, `CN1C(C)(C)CC(Oc2ccc(C(=O)Nc3ccc(NC(=O)Nc4cc(C(C)(CF)CF)on4)cc3)nc2)CC1(C)C` had a pKd in test [2] of over 8.52. The pIC50 in test [3] is at least 7.00. The “Kinase Specificity (S10)” value in test [1] is “B (0.03 < B ≦ 0.05)”.
For `CN1C(C)(C)CC(Oc2ccc(C(=O)Nc3ccc(NC(=O)Nc4cc(C(C)(C)C(F)(F)F)on4)cc3)nc2)CC1(C)C`, in that order: 8.00 to 8.52, at least 7.00 and “B (0.03 < B ≦ 0.05)”.
Regarding `CN1C(COc2ccc(C(=O)Nc3ccc(NC(=O)Nc4cc(C(C)(C)C)on4)cc3)nc2)CCC1(C)C` (stereo not shown), the pKd in test [2] was 8.00 to 8.52. Moreover, the pIC50 in test [3] was at least 7.00. The “Kinase Specificity (S10)” value in test [1] is listed as “B (0.03 < B ≦ 0.05)”.
The corresponding values for `CCN1C(C)(C)CC(Oc2ccc(C(=O)Nc3ccc(NC(=O)Nc4cc(C(C)(C)C)on4)cc3)nc2)CC1(C)C` are over 8.52, at least 7.00 and “A (A ≦ 0.03)”.
For `CN1C(C)(C)CC(Oc2ccc(C(=O)Nc3ccc(NC(=O)Nc4cc(C(C)(C)C)no4)cc3)nc2)CC1(C)C`, in that order: 8.00 to 8.52, at least 7.00 and “B (0.03 < B ≦ 0.05)”.
For `CC(C)N1CCC(Oc2ccc(C(=O)Nc3ccc(NC(=O)Nc4cc(C(C)(C)C)no4)cc3)nc2)CC1`, in that order: 8.00 to 8.52, at least 7.00 and “B (0.03 < B ≦ 0.05)”.
With `CC(C)N1CC[C@@H](COc2ccc(C(=O)Nc3ccc(NC(=O)Nc4cc(C(C)(C)C)on4)cc3)nc2)C1`, the pKd in test [2] was over 8.52. In addition, the pIC50 in test [3] is at least 7.00. Further, the “Kinase Specificity (S10)” value in test [1] was “C (C > 0.05)”.
For `CCN1C(C)(C)CC(Oc2ccc(C(=O)Nc3ccc(NC(=O)Nc4cc(C(C)(C)C)no4)cc3)nc2)CC1(C)C`, in that order: under 8.00, at least 7.00 and “B (0.03 < B ≦ 0.05)”.
For `CCN1CCC(Oc2ccc(C(=O)Nc3ccc(NC(=O)Nc4cc(C(C)(C)C)no4)cc3)nc2)CC1`, in that order: 8.00 to 8.52, at least 7.00 and “B (0.03 < B ≦ 0.05)”.
Consider `CCN1CC[C@@H](COc2ccc(C(=O)Nc3ccc(NC(=O)Nc4cc(C(C)(C)C)on4)cc3)nc2)C1`, for which, in test [2], the pKd is under 8.00. For the same compound, the pIC50 in test [3] is at least 7.00. The “Kinase Specificity (S10)” value in test [1] is listed as “C (C > 0.05)”.
Compound `CN1C(C)(C)CC(=O)C(c2ccc(C(=O)Nc3ccc(NC(=O)Nc4cc(C(C)(C)C)on4)cc3)nc2)C1(C)C` (stereo not shown) gave a negative-log Kd (pKd) in test [2] of over 8.52. Also, in test [3], the pIC50 is 6.60 to 7.00. For the same compound, the “Kinase Specificity (S10)” value in test [1] is recorded as “A (A ≦ 0.03)”.
The corresponding values for `CN1C(C)(C)CC(C)(Oc2ccc(C(=O)Nc3ccc(NC(=O)Nc4cc(C(C)(C)C)on4)cc3)nc2)CC1(C)C` are over 8.52, at least 7.00 and “C (C > 0.05)”.
Consider `CC(C)(C)c1cc(NC(=O)Nc2ccc(NC(=O)c3ccc(OC4CN5CCC4CC5)cn3)cc2)no1` (stereo not shown), for which the pKd in test [2] is over 8.52. For the same compound, in test [3], the pIC50 is at least 7.00. The “Kinase Specificity (S10)” value in test [1] is on record as “C (C > 0.05)”.
The corresponding values for `CC(C)(C)c1cc(NC(=O)Nc2ccc(NC(=O)c3ccc(OC[C@H]4CCCN5CCCC[C@@H]45)cn3)cc2)no1` are over 8.52, at least 7.00 and “C (C > 0.05)”.
In test [2], `CN1C(C)(C)CC(Oc2ccc(C(=O)Nc3ccc(NC(=O)Nc4cc(C(C)(C)C)nn4C)cc3)nc2)CC1(C)C` gave a pKd of 8.00 to 8.52. Also, the pIC50 in test [3] was 6.60 to 7.00. Further, the “Kinase Specificity (S10)” value in test [1] was “B (0.03 < B ≦ 0.05)”.
For `CN1C(C)(C)CC(Oc2ccc(C(=O)Nc3ccc(NC(=O)Nc4cc(C(F)(F)F)n(C)n4)cc3)nc2)CC1(C)C`, in that order: over 8.52, 6.00 to 6.60 and “C (C > 0.05)”.
The corresponding values for `CN1C(C)(C)CC(Oc2ccc(C(=O)Nc3cccc(CNC(=O)Nc4cc(C(C)(C)C)on4)c3)nc2)CC1(C)C` are under 8.00, under 6.00 and “C (C > 0.05)”.
Regarding `CC1(C)CC(Oc2ccc(C(=O)Nc3ccc(NC(=O)Nc4cc(C(C)(C)C)on4)cc3)nc2)CC(C)(C)N1`, in test [1], the “Kinase Specificity (S10)” value is “C (C > 0.05)”.
As to `CN1C(C)(C)CC(Oc2ccc(C(=O)Nc3ccc(NC(=O)Nc4cc(C(C)(C)C)on4)cc3)nn2)CC1(C)C`, the pKd in test [2] was over 8.52. The pIC50 in test [3] is 6.00 to 6.60. Besides, the “Kinase Specificity (S10)” value in test [1] is “C (C > 0.05)”.
For `CN1C(C)(C)CC(Oc2cnc(C(=O)Nc3ccc(NC(=O)Nc4cc(C(C)(C)C)on4)cc3)cn2)CC1(C)C`, in that order: 8.00 to 8.52, 6.60 to 7.00 and “B (0.03 < B ≦ 0.05)”.

What is called pKd is the Kd on a negative log10 scale, so that one unit is a factor of ten.
